Activity data for 6 compounds are collected here from ChEMBL document CHEMBL4619788, “Chemically Induced Degradation of FAK-ALK for Application in Cancer Therapeutics” (ACS Med Chem Lett, 2020).

Assay [1] deals with T1, Protein cereblon/Focal adhesion kinase 1 (Homo sapiens) (UniProt Q05397+Q96SW2). Description: Protac activity at CRBN/FAK in human PA-TU-8988T cells assessed as induction of FAK degradation at 10 nM incubated for 4 hrs by immunoblot assay relative to control. It counts as cell-based. Background: Immunoblotting shows a protein as a band on a membrane.
Assay [2] deals with T1, Protein cereblon/Focal adhesion kinase 1 (Homo sapiens). The assay is described as follows: Protac activity at CRBN/FAK in human PA-TU-8988T cells assessed as induction of FAK degradation at 100 nM incubated for 4 hrs by immunoblot assay relative to control. It counts as cell-based.

T1 sequence (Q05397 2-1052 limits assumed): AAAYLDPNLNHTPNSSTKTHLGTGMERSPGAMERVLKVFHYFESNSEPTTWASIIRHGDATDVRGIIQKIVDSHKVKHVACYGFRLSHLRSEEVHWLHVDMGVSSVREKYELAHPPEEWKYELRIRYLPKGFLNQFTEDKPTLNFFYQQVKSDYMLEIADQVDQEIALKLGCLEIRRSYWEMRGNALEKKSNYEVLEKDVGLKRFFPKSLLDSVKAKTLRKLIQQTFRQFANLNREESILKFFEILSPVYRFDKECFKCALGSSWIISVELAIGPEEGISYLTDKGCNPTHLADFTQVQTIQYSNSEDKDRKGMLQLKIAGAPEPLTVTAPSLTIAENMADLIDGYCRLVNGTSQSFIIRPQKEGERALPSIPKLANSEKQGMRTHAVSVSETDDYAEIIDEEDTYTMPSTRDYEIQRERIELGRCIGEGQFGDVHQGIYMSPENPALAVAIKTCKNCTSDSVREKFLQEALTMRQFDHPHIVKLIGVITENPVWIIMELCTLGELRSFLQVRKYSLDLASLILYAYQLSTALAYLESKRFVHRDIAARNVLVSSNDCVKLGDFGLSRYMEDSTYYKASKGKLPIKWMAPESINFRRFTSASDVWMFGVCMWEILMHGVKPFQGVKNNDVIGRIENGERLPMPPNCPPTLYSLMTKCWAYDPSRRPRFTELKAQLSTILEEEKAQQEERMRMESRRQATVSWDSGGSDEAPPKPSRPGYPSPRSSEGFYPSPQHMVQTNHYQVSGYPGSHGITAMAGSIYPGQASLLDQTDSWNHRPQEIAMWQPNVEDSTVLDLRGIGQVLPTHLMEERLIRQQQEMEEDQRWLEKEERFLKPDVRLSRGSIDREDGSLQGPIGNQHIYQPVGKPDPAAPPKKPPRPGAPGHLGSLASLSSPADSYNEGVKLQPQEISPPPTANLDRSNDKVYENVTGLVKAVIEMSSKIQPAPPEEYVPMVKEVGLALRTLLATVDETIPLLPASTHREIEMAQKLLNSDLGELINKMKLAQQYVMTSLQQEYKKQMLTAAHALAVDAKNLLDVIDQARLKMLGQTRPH
T1 sequence (Q96SW2 whole entry partner): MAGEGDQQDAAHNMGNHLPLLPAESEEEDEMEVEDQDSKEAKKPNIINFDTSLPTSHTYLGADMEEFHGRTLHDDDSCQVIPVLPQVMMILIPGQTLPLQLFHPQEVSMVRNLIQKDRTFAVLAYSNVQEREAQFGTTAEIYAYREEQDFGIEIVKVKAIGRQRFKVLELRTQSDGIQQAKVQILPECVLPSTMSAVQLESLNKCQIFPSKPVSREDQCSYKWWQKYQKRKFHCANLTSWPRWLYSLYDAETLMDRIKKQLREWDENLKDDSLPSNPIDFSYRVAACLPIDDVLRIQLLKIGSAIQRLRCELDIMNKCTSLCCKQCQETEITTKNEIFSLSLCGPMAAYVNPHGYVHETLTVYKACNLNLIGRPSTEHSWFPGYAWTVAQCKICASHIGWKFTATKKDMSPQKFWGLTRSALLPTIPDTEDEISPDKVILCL

For the compound `CS(=O)(=O)c1cccc(CNc2nc(Nc3ccc(C(=O)NCCCCCCCCNC(=O)COc4cccc5c4C(=O)N(C4CCC(=O)NC4=O)C5=O)cc3)ncc2C(F)(F)F)c1` (configuration not stated), the values for the Activity in assay [1] and in assay [2] were 25 to 49% and 85 to 100%, respectively.
For `CNC(=O)c1ccccc1Nc1cc(Nc2ccc(N3CCN(CCCCCCCCNc4cccc5c4C(=O)N(C4CCC(=O)NC4=O)C5=O)CC3)cc2OC)ncc1C(F)(F)F` (configuration not stated), in that order: 85 to 100% and 85 to 100%.
With `CNC(=O)c1ccccc1Nc1cc(Nc2ccc(N3CCN(CCCCCCCCNC(=O)CNc4cccc5c4C(=O)N(C4CCC(=O)NC4=O)C5=O)CC3)cc2OC)ncc1C(F)(F)F` (configuration not stated), the Activity in assay [1] and in assay [2] was 85 to 100% throughout.
Consider `CNC(=O)c1ccccc1Nc1cc(Nc2ccc(N3CCN(CCOCCOCCNC(=O)CNc4cccc5c4C(=O)N(C4CCC(=O)NC4=O)C5=O)CC3)cc2OC)ncc1C(F)(F)F` (configuration not stated), for which the results for the Activity in assay [1] and in assay [2] were 70 to 84% and 85 to 100%, respectively.
For `CNC(=O)c1ccccc1Nc1cc(Nc2cc(C)c(C3CCN(CCCCCCNC(=O)COc4cccc5c4C(=O)N(C4CCC(=O)NC4=O)C5=O)CC3)cc2OC(C)C)ncc1C(F)(F)F` (configuration not stated), in that order: 85 to 100% and 85 to 100%.
Consider `CNC(=O)c1ccccc1Nc1cc(Nc2ccc(N3CCN(CCCCCCNC(=O)COc4cccc5c4C(=O)N(C4CCC(=O)NC4=O)C5=O)CC3)cc2OC)ncc1C(F)(F)F` (configuration not stated), for which the Activity in assay [1] and in assay [2] was 85 to 100% in each case.
